According to US12291581B2, “Serpin peptides and methods of using the same” (SERPIN PHARMA, LLC, priority 2012, dated 2025):
Entries after “also recorded” stand apart in the source; their conditions may differ.

Experiments:
[1] = test system: 111 in vitro assay targets (human receptors); experiment: Human receptor panning, GenSEP Explorer panel
Excerpt: In addition, we also performed a profile using human receptor panning. The GenSEP Explorer panel contains 111 in vitro assay targets carefully selected to assess drug/chemical biological activities. Assay categories include GPCRs, Voltage-Gated Ion Channels, Ligand-Gated Ion Channels, Neurotransmitter transporters, Nuclear Receptors and Steroids as well as a diverse set of biochemical targets including phosphodiesterases, kinases and other relevant enzymes.

[2] = Pharmacokinetic profile after intravenous injection, plasma by LC/MS/MS; assay type: in vivo, rats; settings: IV 5 mg/kg
Protocol: In performing the assay, three normal rats were injected intravenously with 5 mg/kg SP16 and the plasma concentration of SP16 established at 8 time points following the injection. […] The assay was executed by Apredica, Boston, Mass.

hERG = hERG (Homo sapiens, UniProt Q12809); assay type: cell-based
Chain of hERG (Q12809 whole entry): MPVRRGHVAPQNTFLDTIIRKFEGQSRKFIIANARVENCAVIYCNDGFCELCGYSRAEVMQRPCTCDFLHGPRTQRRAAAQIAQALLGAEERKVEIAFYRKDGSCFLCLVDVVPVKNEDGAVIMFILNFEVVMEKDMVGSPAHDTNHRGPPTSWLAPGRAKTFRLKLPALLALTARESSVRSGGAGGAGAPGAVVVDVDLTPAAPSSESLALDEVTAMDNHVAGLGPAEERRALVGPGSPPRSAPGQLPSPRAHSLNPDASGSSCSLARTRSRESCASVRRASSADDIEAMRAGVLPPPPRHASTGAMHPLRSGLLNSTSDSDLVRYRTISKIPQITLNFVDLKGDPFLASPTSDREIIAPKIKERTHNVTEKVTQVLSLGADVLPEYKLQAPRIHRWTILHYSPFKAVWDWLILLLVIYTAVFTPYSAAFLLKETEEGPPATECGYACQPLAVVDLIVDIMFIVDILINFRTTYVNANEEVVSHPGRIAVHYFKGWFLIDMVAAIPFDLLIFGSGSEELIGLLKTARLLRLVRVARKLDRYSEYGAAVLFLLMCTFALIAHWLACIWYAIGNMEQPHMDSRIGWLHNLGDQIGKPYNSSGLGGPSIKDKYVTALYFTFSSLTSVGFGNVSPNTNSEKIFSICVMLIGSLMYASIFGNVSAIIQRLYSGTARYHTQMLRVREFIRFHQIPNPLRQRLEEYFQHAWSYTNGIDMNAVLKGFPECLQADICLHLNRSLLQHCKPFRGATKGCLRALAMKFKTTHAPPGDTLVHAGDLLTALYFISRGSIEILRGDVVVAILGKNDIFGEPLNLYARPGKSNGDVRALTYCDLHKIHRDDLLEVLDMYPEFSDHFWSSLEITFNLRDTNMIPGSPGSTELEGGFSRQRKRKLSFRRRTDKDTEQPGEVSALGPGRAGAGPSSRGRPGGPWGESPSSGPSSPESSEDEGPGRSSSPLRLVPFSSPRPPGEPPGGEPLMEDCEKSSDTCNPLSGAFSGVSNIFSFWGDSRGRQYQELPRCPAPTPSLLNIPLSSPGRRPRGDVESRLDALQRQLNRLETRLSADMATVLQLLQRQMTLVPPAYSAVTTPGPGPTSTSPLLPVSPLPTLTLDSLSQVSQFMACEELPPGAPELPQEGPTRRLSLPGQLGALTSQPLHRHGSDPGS
Excerpt: The SP16 safety profile also included hERG data. […] The study was executed by Apredica, Boston, MA.

TLR-2 = molecular target: T1, TLR-2 (Mus musculus, UniProt Q9QUN7); experiment: TLR-2 indicator cell line assay (HEK-Blue mTLR2), secreted alkaline phosphatase; assay type: cell-based; settings: 20 μg/ml peptide, 24 hours
T1 construct: host or cells: HEK-Blue mTLR2 (HEK293-derived reporter line, SEAP read-out)
T1 sequence (Q9QUN7 25-784): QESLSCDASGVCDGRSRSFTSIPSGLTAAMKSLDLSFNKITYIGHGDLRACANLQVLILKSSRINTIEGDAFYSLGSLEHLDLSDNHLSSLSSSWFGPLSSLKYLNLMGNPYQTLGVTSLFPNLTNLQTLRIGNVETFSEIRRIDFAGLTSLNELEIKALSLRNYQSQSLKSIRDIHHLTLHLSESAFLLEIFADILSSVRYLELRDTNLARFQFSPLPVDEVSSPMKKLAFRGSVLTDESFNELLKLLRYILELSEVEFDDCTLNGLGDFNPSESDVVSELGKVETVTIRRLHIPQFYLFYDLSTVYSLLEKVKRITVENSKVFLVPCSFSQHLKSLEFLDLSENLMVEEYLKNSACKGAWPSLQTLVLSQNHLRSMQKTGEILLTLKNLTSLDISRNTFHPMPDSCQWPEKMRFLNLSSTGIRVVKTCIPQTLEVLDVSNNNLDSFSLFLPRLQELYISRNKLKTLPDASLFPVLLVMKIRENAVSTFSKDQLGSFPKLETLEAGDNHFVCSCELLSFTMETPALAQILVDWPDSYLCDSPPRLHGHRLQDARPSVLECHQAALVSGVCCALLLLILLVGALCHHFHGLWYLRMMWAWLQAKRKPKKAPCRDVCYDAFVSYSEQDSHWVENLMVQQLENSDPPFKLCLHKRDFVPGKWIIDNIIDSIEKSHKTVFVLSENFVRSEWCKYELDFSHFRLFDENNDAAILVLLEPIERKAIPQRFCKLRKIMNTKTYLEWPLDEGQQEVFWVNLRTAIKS
Protocol: Graph summarizing representative data from assays with an engineered TLR-2 indicator cell line (HEK-Blue™ mTLR2, Invivogen). Cells were incubated with the indicated concentrations of peptide for 24 hours. Upon TLR2 activation, the cells secrete alkaline phosphatase which can be assayed. The assay was done in triplicate and averages with standard deviations are plotted.
Graph summarizing data from an experiment where an engineered TLR-2 indicator cell line (HEK-Blue™ mTLR2, Invivogen) was used to test the impact of substituting amino acid residues of the SP16 peptide with alanine (“alanine scan”). Cells were incubated with 20 μg/ml of the indicated peptides for 24 hours. Upon TLR2 activation, the cells secrete alkaline phosphatase which can be assayed. The assay was done in triplicate and averages are plotted. Peptide sequences are shown in the following figure. *p<0.05, compared with scrambled control (SP34).
We also performed a peptide optimization assay using an alanine scan with the TLR-2 assay. Data was obtained using an experiment with an engineered TLR-2 indicator cell line (HEK-BLUE™ mTLR2, Invivogen). Cells were incubated with the 20 μg/ml of the indicated peptides for 24 hours. Upon TLR2 activation, the cells secrete alkaline phosphatase, which can be assayed. The assay was done in triplicate and averages are plotted. […]

LPS challenged mice = experiment: Mouse LPS challenge (sepsis/inflammation) model, serum TNF-alpha by ELISA; assay type: in vivo; settings: for anti-inflammatory effect when administered to a mouse model of sepsis (FIG. 10): Table B peptides; for TNF-alpha levels in LPS challenged mice, alanine scanned SP16 peptides (FIG. 10B): compared with Dexamethasone positive control
Protocol: FIGS. 10A and B. FIG. 10A presents exemplary peptides that were used to reduce TNF-alpha levels in mice subjected to an LPS challenge. […] The mice were treated with alanine scanned SP16 peptide. […] Based on this alanine screen, and without wishing to be bound by a theory, it appears that the C- and N-terminal amino acids contribute to the anti-inflammatory effect of the SP16 peptide. […] Groups of 3 animals were injected with 0.2 mg/kg peptide and subjected to LPS challenge. Serum TNF-alpha levels were determined by ELISA. Several peptides provided the same level of protection as 1 mg/kg Dexamethasone.
The ability of peptide drugs was tested to for their potential for the reduction of inflammatory cytokines following treatment with purified bacterial lipopolysaccharide (LPS)—a major component of bacterial cell wall of Gram-negative bacteria. A model of inflammation was used wherein mice were injected with LPS, which induced a transient immune response and a surge of serum inflammatory cytokines. The immune response peaks after 90 minutes and subsides after 24 hours. The levels of key serum inflammatory markers were compared between mice treated and untreated with LPS 90 minutes after injection.
We designed 18 different peptides based on the hAAT sequence (Accession #AAB59371), and had these synthesized using conventional FMOC chemistry. To assess in vivo anti-inflammatory and therapeutic potential, the peptides were tested in a mouse lipopolysaccharide (LPS) challenge model with serum TNFα levels as readout. Using dexamethasone as reference, groups of 3 animals were IP injected with 0.2 mg/kg peptide 2 hours prior to an LPS challenge, and serum TNFα levels determined 30 min after the LPS challenge, by ELISA. The best performing peptide reduced serum TNFα levels equivalent to those achieved with 1 mg/kg dexamethasone. Next, shortened versions of this peptide were synthesized, tested in the mouse LPS challenge model, and a 17 amino acid peptide, SP16, emerged as a lead development candidate for further characterization. Next, SP16 was tested in a lethal endotoxemia model, which models endotoxemia following acute radiation exposure, where Gram negative bacteria leaking from the gastro-intestinal system can cause lethal endotoxemia.
Mice were injected with 0.5, 0.1, 0.02 and 0.004 mg of each peptide. Mice were also treated with dexamethasone as a positive control and vehicle as a negative control. Two hours later each mouse was injected with LPS. Samples were taken 90 minutes after LPS injection.
To evaluate the effect of different amino acids in the SP16 peptide for the immunomodulating effect, we created an alanine screen. […] The peptides wherein the substitution occurred within amino acids 4-14 of SP16, appeared to maintain and rather improve their capacity to reduce TNF-alpha levels compared to the control Dexamethasone. The LPS mouse model is an established model for sepsis in humans and thus we conclude that peptides wherein the amino acids 1-3 and 15-17 are present, can be effectively used in humans to treat or prevent sepsis in conditions, such as burns or acute radiation, which expose humans to a high risk of developing endotoxemia.

NOD mice = experiment: NOD mouse spontaneous autoimmune (type I) diabetes model; assay type: in vivo; settings: groups of 12 NOD mice, vs scrambled control peptide
Protocol: Groups of 12 animals were injected with SP16, hAAT or scrambled control peptide. Non-fasted blood glucose levels were measured twice a week and animals with two consecutive readings greater than 300 mg/dl were considered diabetic.
NOD (non-obese diabetic) mice spontaneously develop overt, insulin-dependent type I diabetes. The NOD model is recommended by the FDA for preclinical testing of therapeutic agents for type I diabetes. Disease onset typically occurs at 12-14 weeks of age, with peri-insulitis detectable from about 4 weeks of age and developing into severe insulitis at 10 weeks of age. The autoimmune destruction of β-cells is thought to arise from dysregulation of multiple tolerance pathways, leading to islet infiltration with monocytes, predominantly CD4^+ and CD8^+ T cells, and insulitis, with subsequent hypoinsulinemia and hyperglycemia.

CC[C@H](C)[C@H](NC(=O)[C@H](CCSC)NC(=O)[C@H](CC(C)C)NC(=O)[C@H](Cc1ccccc1)NC(=O)[C@@H](NC(=O)[C@H](Cc1ccccc1)NC(=O)[C@@H]1CCCN1C(=O)[C@H](CCCCN)NC(=O)[C@H](CC(N)=O)NC(=O)[C@H](Cc1ccccc1)NC(=O)[C@H](CCCCN)NC(=O)[C@@H](N)C(C)C)C(C)C)C(=O)N[C@@H](CCC(=O)O)C(=O)N[C@@H](CCC(N)=O)C(=O)N[C@@H](CC(N)=O)C(=O)N[C@H](C(=O)N[C@@H](CCCCN)C(=O)O)[C@@H](C)O [SP16]
effect on the whole GenSEP Explorer panel ([1]; 111 human receptors): not able to identify any hits; also recorded: no effect on 111 human receptors | Percent inhibition ([1]; Brain/gut peptides, 15 receptors tested): Insignificant | Percent inhibition ([1]; Cell-Based, Functional, 1 receptor tested): Insignificant | Percent inhibition ([1]; Enzymes, 20 receptors tested): Insignificant | Percent inhibition ([1]; Enzymes, Kinases, 11 receptors tested): Insignificant | Percent inhibition ([1]; Growth factors & hormones, 2 receptors tested): Insignificant | Percent inhibition ([1]; Ion Channels, 8 receptors tested): Insignificant | Percent inhibition ([1]; Neurotransmitter Related, 47 receptors tested): Insignificant | Percent inhibition ([1]; Second Messengers, 3 receptors tested): Insignificant | Percent inhibition ([1]; Steroids, 4 receptors tested): Insignificant | Last Time point ([2]; normal rats): 8.0 | t1/2 ([2]; normal rats): 1.9 h | Cmax ([2]; three normal rats, plasma): 2500 ng/mL | T1/2 (half-life) ([2]; three normal rats, plasma): 1.9 h | comment on hERG inhibition (hERG; hERG FastPatch, 0.008-25 μM): No concentration-dependent | IC50 (hERG; hERG FastPatch, test conc 0.008-25 μM (SP16), 0.01-10 μM (Quinidine)): > 25 µM | hERG inhibition (hERG; up to 25 μM): does not impact hERG activity; also recorded: does not inhibit hERG

A A A N K P F V F L M I E Q N T K (AAANKPFVFLMIEQNTK; listed as Homo sapiens) [SP37, SP16 with residues 1-3 substituted with alanines]
impact on TLR-2 signaling, alanine scan, FIG. 12/13 (TLR-2): no impact on TLR2

V K F A A A F V F L M I E Q N T K (VKFAAAFVFLMIEQNTK; listed as Homo sapiens) [SP40, alanine scanned SP16 peptide]
anti-inflammatory effect when administered to a mouse model of sepsis (FIG. 10) (LPS challenged mice): particularly good anti-inflammatory effect | TNF-alpha levels in LPS challenged mice, alanine scanned SP16 peptides (FIG. 10B) (LPS challenged mice): reduce TNF-alpha levels more than Dexamethasone

V K F N K P A A A L M I E Q N T K (VKFNKPAAALMIEQNTK; listed as Homo sapiens) [SP43, alanine scanned SP16 peptide]
anti-inflammatory effect when administered to a mouse model of sepsis (FIG. 10) (LPS challenged mice): particularly good anti-inflammatory effect | TNF-alpha levels in LPS challenged mice, alanine scanned SP16 peptides (FIG. 10B) (LPS challenged mice): reduce TNF-alpha levels more than Dexamethasone

V K F N K P F V F A A A E Q N T K (VKFNKPFVFAAAEQNTK; listed as Homo sapiens) [SP46, alanine scanned SP16 peptide]
anti-inflammatory effect when administered to a mouse model of sepsis (FIG. 10) (LPS challenged mice): particularly good anti-inflammatory effect | TNF-alpha levels in LPS challenged mice, alanine scanned SP16 peptides (FIG. 10B) (LPS challenged mice): reduce TNF-alpha levels more than Dexamethasone

V K F N K P F V F L M I A A A T K (VKFNKPFVFLMIAAATK; listed as Homo sapiens) [SP49, alanine scanned SP16 peptide]
anti-inflammatory effect when administered to a mouse model of sepsis (FIG. 10) (LPS challenged mice): particularly good anti-inflammatory effect | TNF-alpha levels in LPS challenged mice, alanine scanned SP16 peptides (FIG. 10B) (LPS challenged mice): reduce TNF-alpha levels more than Dexamethasone

hAAT: human alpha-1-antitrypsin, parent protein of SP16
incidence / development of diabetes (two consecutive non-fasted glucose readings greater than 300 mg/dl) (NOD mice): delayed and reduced the incidence of diabetes
